Experiments:
[1] = test system: Timothy syndrome cardiomyocytes; test: Analysis of cardiomyocyte contractions, Timothy syndrome cardiomyocytes; type: cell-based, human; settings: for effects on Timothy syndrome cardiomyocytes: contraction irregularity and beating rate; for contraction irregularity / spontaneous beating rate: 5 μM, 2 hours; for contraction irregularity, long-term repeated treatment / spontaneous beating rate, long-term repeated treatment: 10 μM twice a day for seven days; for rhythmic contraction and cell survival: 10 μM, 7 days, vs untreated control group at day 27
Procedure: […] The contraction analysis was performed as reported previously (Yazawa et al., 2011). The movies were taken before the treatment, and 2 hours after the treatment of each compound on the intact monolayer Timothy syndrome cardiomyocytes. The contraction rate and the irregularity value of each sample before and after treatment were compared using paired Student t-test.

Sigma-1R = Sigma-1R (Homo sapiens, UniProt Q99720); settings: cited from earlier work
[2] = test system: Timothy syndrome cardiomyocytes; test: Current-clamp action potential recordings in Timothy syndrome cardiomyocytes; type: cell-based, human; settings: 2 hr; for paced action potential duration: paced 0.2 Hz
Procedure: The Timothy syndrome and control iPSCs were differentiated into cardiomyocytes following a protocol reported previously (Song et al., 2015). The cardiomyocytes were dissociated into single cells for whole-cell patch-clamp recordings at day 31 and used for patch clamping between day 35 and 45. Whole-cell patch-clamp recordings of iPSC-derived cardiomyocytes were conducted using a MultiClap 700B patch-clamp amplifier (Molecular Devices) and an inverted microscope equipped with differential interface optics (Nikon, Ti-U). The glass pipettes were prepared using borosilicate glass (Sutter Instrument, BF150-110-10) using a micropipette puller (Sutter Instrument, Model P-97). Voltage-clamp measurements were conducted using an extracellular solution consisting of 5 mM BaCl2, 160 mM TEA and 10 mM HEPES (pH7.4 at 25° C.) and a pipette solution of 125 mM CsCl, 0.1 mM CaCl2, 10 mM EGTA, 1 mM MgCl2, 4 mM MgATP and 10 mM HEPES (pH 7.4 with CsOH at 25° C.). The protocol for voltage-clamp recordings was that cells were held at −90 mV and then depolarized to −10 mV for 400 ms at a rate of 0.1 Hz for the Ba^2+ current recordings; cells were held at −90 mV, stimulated with a 2-s family of pulses from −90 to +20 for the current-voltage relationship of the Ba^2+ currents. The recordings were conducted under room temperature. […] The recordings were conducted at 37° C. Cardiac action potentials were stimulated (2 ms, 1 nA) in current clamp mode at 37° C. (0.2 or 0.5 Hz). Recorded action potentials were analyzed using Clampfit 10.4 (Axon Instruments). Control recordings were obtained from cardiomyocytes without treatment.
Patch-Clamp Electrophysiology of the cardiomyocytes was done as described in Example 1.

[3] = test system: Timothy syndrome cardiomyocytes; test: Calcium imaging (FluoForte) of spontaneous calcium transients in Timothy syndrome cardiomyocytes; type: cell-based, human; settings: 5 μM, 30 min
Procedure: (§1) The Nikon automatic microscope (Nikon Eclipse TiE with a motorized stage) connected to sCMOS camera (Andor Zyla sCMOS 4.2 MP) together with a stage top incubator (at 37° C., 5% CO2 and 20% O2, controlled by TOKAI HIT Hypoxia gas delivery system) were used for this experiment. Nikon objective lens 40× (Nikon CFI Plan Apo Lambda, NA 0.95) was used for single cell recordings and the cardiomyocyte culture media was used as bath solution. The cells were loaded with FluoForte calcium dye for calcium imaging following the manufacturer's instruction (ENZ-51016, Enzo Life Sciences). […] Thirty minutes after the treatment of Fluvoxamine or PRE-084, a second recording was acquired from the same cell. The calcium transient duration and the calcium transient half (50%) decay time from the recordings before and after treatment were analyzed. Paired student's t-test was used for statistics.

control cardiomyocytes [4] = test: Analysis of cardiomyocyte contractions, healthy control cardiomyocytes; type: cell-based, human; settings: 5 μM, 2 hours
control cardiomyocytes [5] = test: Calcium imaging of spontaneous calcium transients in control cardiomyocytes; type: cell-based, human; settings: 5 μM, 30 min
Procedure: as §1

sodium channels = settings: reported (Johannessen et al., 2009); cited from earlier work
LQTS1 cardiomyocytes = test: Action potential recordings in LQTS1 cardiomyocytes; type: cell-based, human
Procedure: (§2) The Timothy syndrome and control iPSCs were differentiated into cardiomyocytes following a protocol reported previously (Song et al., 2015). The cardiomyocytes were dissociated into single cells for whole-cell patch-clamp recordings at day 31 and used for patch clamping between day 35 and 45. Whole-cell patch-clamp recordings of iPSC-derived cardiomyocytes were conducted using a MultiClap 700B patch-clamp amplifier (Molecular Devices) and an inverted microscope equipped with differential interface optics (Nikon, Ti-U). The glass pipettes were prepared using borosilicate glass (Sutter Instrument, BF150-110-10) using a micropipette puller (Sutter Instrument, Model P-97). Voltage-clamp measurements were conducted using an extracellular solution consisting of 5 mM BaCl2, 160 mM TEA and 10 mM HEPES (pH7.4 at 25° C.) and a pipette solution of 125 mM CsCl, 0.1 mM CaCl2, 10 mM EGTA, 1 mM MgCl2, 4 mM MgATP and 10 mM HEPES (pH 7.4 with CsOH at 25° C.). The protocol for voltage-clamp recordings was that cells were held at −90 mV and then depolarized to −10 mV for 400 ms at a rate of 0.1 Hz for the Ba^2+ current recordings; cells were held at −90 mV, stimulated with a 2-s family of pulses from −90 to +20 for the current-voltage relationship of the Ba^2+ currents. The recordings were conducted under room temperature. […] Recorded action potentials were analyzed using Clampfit 10.4 (Axon Instruments). […]

[6] = test system: isogenic control (Ctrl) iPSC-derived cardiomyocytes; test: Paced action potential recordings in isogenic control iPSC-derived cardiomyocytes; type: cell-based, human; settings: 5 uM, 2 hr
Procedure: as §2

[7] = test system: Timothy syndrome iPSC-derived cardiomyocytes; test: GCaMP6f-based calcium imaging in Timothy syndrome iPSC-derived cardiomyocytes; type: cell-based, human; settings: 5 uM, 2 hr
hERG current IKr [8] = target: T1, hERG current IKr (Homo sapiens, UniProt Q12809); type: cell-based; settings: 5 uM, 2 hr; E-4031-sensitive current
T1 construct: hERG current IKr in Timothy syndrome iPSC-derived cardiomyocytes; endogenous in cells; host or cells: Timothy syndrome iPSC-derived cardiomyocytes
Procedure: (§3) The following pulse protocol was used: 5-s voltage clamp applied from 10 mV to 50 mV (Δ20 mV, holding at −40 mV, 0.1 Hz, at 25° C.). After recordings, the extracellular solution was switched to one containing 1 μM E-4031 (TOCRIS). E-4031-sensitive current was measured and analyzed as IKr current using Clampfit 10.4 (Axon Instruments).

[9] = test system: long QT syndrome type 2 iPSC-derived cardiomyocytes; test: Action potential recordings in long QT syndrome type 2 iPSC-derived cardiomyocytes; type: cell-based, human; settings: 5 uM, 2 hr
Procedure: as §2

hERG current IKr [10] = type: cell-based, human; settings: 5 uM, 2 hr; E-4031-sensitive current
Procedure: as §3

Timothy syndrome mice = test: Mouse electrocardiography, Timothy syndrome mouse model; type: in vivo; settings: in drinking water
Procedure: A model mouse for Timothy Syndrome was generated by targeting the Rosa26 locus with a G406R mutant in the calcium channel Cacna1c gene (see FIG. 10A). The experimental design for inducing the expression of Timothy syndrome mutant with Dxm treatment (about 28 mg/kg) is shown in FIG. 10B.
(§4) Subcutaneous 4-lead electrocardiograms of isoflurane-anesthetized 12-week old mice were performed using emka ECG and recorded using iox 2.8.0.19. Recordings were conducted a day 4 and 11 after tamoxifen (Sigma-Aldrich, 50 μg/B.W.(g)/day/mouse, i.e., approximately 1 mg/day/mouse) was administrated at day 1-3. Dxm was resolved to drinking water. Total amount of taken dextromethorphan was estimated based on water consumption in each mouse (23-44 mg/kg). To obtain accurate amount of dextromethorphan administration in mice, the concentration of dextromethorphan in the plasma was measured and analyzed at Columbia University Biomarkers Core Laboratory. RR and QT intervals were measured manually using ecgAUTO v2.8.1.27, Excel and Prism 6/7 software.

control littermate mice = test: Mouse electrocardiography, control littermate mice; type: in vivo; settings: in drinking water
Procedure: as §4

[11] = Dxm concentration in the plasma of mice; type: in vivo, mouse; settings: adult normal mice, Dxm in drinking water
Procedure: as §4

LQTS6 cardiomyocytes = test: Paced action potential recordings in LQTS6 cardiomyocytes; type: cell-based, human; settings: 5 μM, 2 hr; paced 0.5 Hz; M54T mutation in MiRP1

Sequence of Sigma-1R (Q99720 whole entry, species assumed): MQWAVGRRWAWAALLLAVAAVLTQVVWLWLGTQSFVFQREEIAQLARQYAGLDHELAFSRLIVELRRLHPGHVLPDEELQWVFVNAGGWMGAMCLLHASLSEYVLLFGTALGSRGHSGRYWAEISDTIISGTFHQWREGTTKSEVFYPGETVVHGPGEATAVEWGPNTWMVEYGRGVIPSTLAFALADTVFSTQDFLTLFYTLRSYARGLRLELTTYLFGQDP
T1 sequence (Q12809 whole entry): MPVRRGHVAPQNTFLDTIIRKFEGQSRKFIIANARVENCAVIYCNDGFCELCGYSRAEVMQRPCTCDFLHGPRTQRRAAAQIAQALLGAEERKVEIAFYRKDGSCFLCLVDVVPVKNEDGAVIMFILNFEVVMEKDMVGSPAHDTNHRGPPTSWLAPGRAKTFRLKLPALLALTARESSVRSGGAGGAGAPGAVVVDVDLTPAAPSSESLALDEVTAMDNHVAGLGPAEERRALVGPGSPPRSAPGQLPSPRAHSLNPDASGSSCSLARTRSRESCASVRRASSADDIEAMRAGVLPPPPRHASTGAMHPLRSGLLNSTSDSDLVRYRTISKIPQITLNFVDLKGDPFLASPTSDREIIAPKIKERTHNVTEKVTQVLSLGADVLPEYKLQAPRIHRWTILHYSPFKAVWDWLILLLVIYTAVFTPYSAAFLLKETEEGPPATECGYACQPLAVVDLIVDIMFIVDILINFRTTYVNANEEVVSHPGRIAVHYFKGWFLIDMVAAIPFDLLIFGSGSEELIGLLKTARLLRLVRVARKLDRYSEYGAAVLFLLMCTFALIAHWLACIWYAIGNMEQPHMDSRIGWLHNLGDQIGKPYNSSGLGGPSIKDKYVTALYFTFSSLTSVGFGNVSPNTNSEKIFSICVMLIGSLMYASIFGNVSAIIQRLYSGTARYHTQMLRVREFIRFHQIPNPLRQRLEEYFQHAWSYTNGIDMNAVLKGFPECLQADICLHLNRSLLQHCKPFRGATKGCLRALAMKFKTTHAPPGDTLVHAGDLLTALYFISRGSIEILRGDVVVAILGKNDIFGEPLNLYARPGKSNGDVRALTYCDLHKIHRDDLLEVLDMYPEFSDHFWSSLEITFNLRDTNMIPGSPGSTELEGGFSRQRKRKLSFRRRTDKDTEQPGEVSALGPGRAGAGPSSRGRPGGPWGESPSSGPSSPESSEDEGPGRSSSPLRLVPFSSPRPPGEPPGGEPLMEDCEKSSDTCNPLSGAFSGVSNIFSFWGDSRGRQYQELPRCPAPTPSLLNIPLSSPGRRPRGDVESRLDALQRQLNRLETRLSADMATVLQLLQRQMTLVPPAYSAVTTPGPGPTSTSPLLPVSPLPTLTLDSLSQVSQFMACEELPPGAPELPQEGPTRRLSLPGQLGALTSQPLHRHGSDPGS

Compound: Fc1ccc([C@@H]2CCNC[C@H]2COc2ccc3c(c2)OCO3)cc1 [paroxetine]
- effects on Timothy syndrome cardiomyocytes [1]: no beneficial effects
- affinity for sigma 1 receptor (Sigma-1R): low affinity

Compound: CC(C)CC(=O)Nc1[nH]nc2c1CN(C(=O)C1CCN(C)CC1)C2(C)C [PHA-793887]
- effects on Timothy syndrome cardiomyocytes [1]: positive effects

Compound: O=C(OCCN1CCOCC1)C1(c2ccccc2)CCCCC1 [PRE-084]
- contraction irregularity [1]: decreased
- spontaneous beating rate [1]: significantly increased
- contraction irregularity, long-term repeated treatment [1]: reduced
- spontaneous beating rate, long-term repeated treatment [1]: significantly enhanced
- rhythmic contraction and cell survival [1]: enhanced
- abnormal spontaneous action potentials ([2]; 5 μM): rescued
- paced action potential duration ([2]; 5 μM): rescued
- abnormal spontaneous calcium transients [3]: alleviated
- spontaneous calcium transient duration [3]: significantly reduced
- spontaneous calcium transient half decay time [3]: significantly reduced
- contraction rhythmicity of control cardiomyocytes (control cardiomyocytes [4]): did not significantly affect
- spontaneous beating rate of control cardiomyocytes (control cardiomyocytes [4]): significantly enhanced
- calcium transient duration in control cardiomyocytes (control cardiomyocytes [5]): did not significantly affect
- calcium transient half decay time in control cardiomyocytes (control cardiomyocytes [5]): did not significantly affect
- normal calcium transients in control cardiomyocytes (control cardiomyocytes [5]): did not significantly affect
- effects on sodium channels (sodium channels): little effects

Compound: COc1ccc2c(c1)[C@]13CCCC[C@@H]1[C@H](C2)N(C)CC3 [dextromethorphan]
- action potential duration (APD90) in Timothy syndrome iPSC-derived cardiomyocytes ([2]; 5 uM, paced): significantly shortened
- action potential duration in long QT syndrome type 1 iPSC-derived cardiomyocytes (LQTS1 cardiomyocytes; treated vs untreated): significantly shortened
- action potential duration (APD90) in isogenic control cells [6]: not changed
- cardiac transient duration [7]: significantly shortened
- cardiac transient frequency [7]: significantly increased
- IKr current in Timothy syndrome iPSC-derived cardiomyocytes (hERG current IKr [8]): significantly increased
- action potential duration in long QT syndrome type 2 iPSC-derived cardiomyocytes [9]: significantly shortened
- IKr current in long QT syndrome type 2 iPSC-derived cardiomyocytes (hERG current IKr [10]): significantly increased
- QT intervals in Timothy syndrome mice (Timothy syndrome mice; approximately 28 mg/kg, day 4): significantly shortened
- QT intervals in Timothy syndrome mice (Timothy syndrome mice; day 11): significantly shortened
- QT intervals in control littermate mice (control littermate mice): no significant effect
- plasma concentration of Dxm [11]: 5 to 10 ng/mL
- Ki (Sigma-1R; read-out: Ki (Sigma-1R), known as Sigma-1R agonist): 150 nM

Compound: COCCCC/C(=N\OCCN)c1ccc(C(F)(F)F)cc1 [Fluvoxamine]
- contraction irregularity [1]: significantly decreased
- spontaneous beating rate [1]: increased
- contraction irregularity, long-term repeated treatment [1]: reduced
- spontaneous beating rate, long-term repeated treatment [1]: significantly enhanced
- rhythmic contraction and cell survival [1]: enhanced
- paced action potential duration ([2]; 5 μM): reduced
- abnormal spontaneous calcium transients [3]: alleviated
- spontaneous calcium transient duration [3]: significantly reduced
- spontaneous calcium transient half decay time [3]: significantly reduced
- contraction rhythmicity of control cardiomyocytes (control cardiomyocytes [4]): did not significantly affect
- spontaneous beating rate of control cardiomyocytes (control cardiomyocytes [4]): significantly enhanced
- calcium transient duration in control cardiomyocytes (control cardiomyocytes [5]): did not significantly affect
- calcium transient half decay time in control cardiomyocytes (control cardiomyocytes [5]): did not significantly affect
- normal calcium transients in control cardiomyocytes (control cardiomyocytes [5]): did not significantly affect
- prolonged paced action potentials (APD90) in LQTS1 cardiomyocytes (LQTS1 cardiomyocytes; 5 μM, 2 hr, paced 0.5 Hz, G269S mutation in KCNQ1): significantly reduced
- prolonged paced action potentials (APD90) in LQTS6 cardiomyocytes (LQTS6 cardiomyocytes): significantly reduced

Compound: CCCN(CCC)CCc1ccc(OC)c(OCCc2ccccc2)c1 [NE-100]
- beneficial effects of Fluvoxamine under co-treatment with NE-100 ([1]; Fluvoxamine 5 μM + NE-100 5 μM, 2 hr): blocked

Compound: COc1ccc(CCN2CCN(CCCc3ccccc3)CC2)cc1OC [SA4503]
- beating rate or contraction irregularity ([1]; 0.1 μM): no obvious improvement
- contractions of Timothy syndrome cardiomyocytes ([1]; dose between 1 μM to 5 μM): stopped the contractions

Compound: COc1ccc(CNc2nc(NCc3ccc(OC)cc3)c3ncn(C4CCCCC4)c3n2)cc1 [Myoseverin-B]
- effects on Timothy syndrome cardiomyocytes [1]: positive effects

— patent US20200030262A1, “THERAPEUTIC SIGMA 1 RECEPTOR AGONISTS FOR TREATING LONG QT SYNDROME TYPE 1, TYPE 2, TYPE 6, TYPE 8 AND RELATED CHANNELOPATHIES” (priority 2017, published 2020)
